Experimental data taken from PubChem BioAssay AID1918932 (Molecular Pharmacology Branch, DTP, NCI, 2023).

Test system: 171881-019-R-J1-PDC complex spheroid viability
Assay: Anticancer human tumor 171881-019-R-J1-PDC patient-derived invasive breast carcinoma cell line growth inhibition
Conditions: for IC50: curve of first compound; for viability, T/C: stronger effect = lower value
Procedure, shortened: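 Complex spheroids of tumor cells with HUVEC and human MSCs, exposed to iadademstat combined with other agents. Each agent tested in half-log steps from near clinical Cmax (else 10 microM top), DMSO ≤0.25%.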

[1] = second compound 0.1 µM, first compound 0.00316 µM
[2] = second compound 0.1 µM, first compound 0.01 µM
[3] = second compound 0.1 µM, first compound 0.0316 µM
[4] = second compound 0.1 µM, first compound 0.1 µM
[5] = second compound 0.1 µM, first compound 0.316 µM
[6] = second compound 0.1 µM, first compound 1 µM
[7] = second compound 0.316 µM, first compound 0.00316 µM
[8] = second compound 0.316 µM, first compound 0.01 µM
[9] = second compound 0.316 µM, first compound 0.0316 µM
[10] = second compound 0.316 µM, first compound 0.1 µM
[11] = second compound 0.316 µM, first compound 0.316 µM
[12] = second compound 0.316 µM, first compound 1 µM
[13] = second compound 1 µM, first compound 0.00316 µM
[14] = second compound 1 µM, first compound 0.01 µM
[15] = second compound 1 µM, first compound 0.0316 µM
[16] = second compound 1 µM, first compound 0.1 µM
[17] = second compound 1 µM, first compound 0.316 µM
[18] = second compound 1 µM, first compound 1 µM
[19] = second compound 3.16 µM, first compound 0.00316 µM
[20] = second compound 3.16 µM, first compound 0.01 µM
[21] = second compound 3.16 µM, first compound 0.0316 µM
[22] = second compound 3.16 µM, first compound 0.1 µM
[23] = second compound 3.16 µM, first compound 0.316 µM
[24] = second compound 3.16 µM, first compound 1 µM
[25] = second compound 10 µM, first compound 0.00316 µM
[26] = second compound 10 µM, first compound 0.01 µM
[27] = second compound 10 µM, first compound 0.0316 µM
[28] = second compound 10 µM, first compound 0.1 µM
[29] = second compound 10 µM, first compound 0.316 µM
[30] = second compound 10 µM, first compound 1 µM

Compound: O=C(C=Cn1cnc(-c2cc(C(F)(F)F)cc(C(F)(F)F)c2)n1)NNc1cnccn1 + NC1CCC(NC2CC2c2ccccc2)CC1
- IC50 (second compound 0.1 µM): < 3.16 nM
- IC50 (second compound 0.316 µM): < 3.16 nM
- IC50 (second compound 1 µM): < 3.16 nM
- IC50 (second compound 3.16 µM): < 3.16 nM
- IC50 (second compound 10 µM): < 3.16 nM
- viability, T/C [1]: 20%
- viability, T/C [2]: 14.8%
- viability, T/C [3]: 5.39%
- viability, T/C [4]: 2.15%
- viability, T/C [5]: 2.24%
- viability, T/C [6]: 2.08%
- viability, T/C [7]: 20.9%
- viability, T/C [8]: 14.6%
- viability, T/C [9]: 6.07%
- viability, T/C [10]: 2.35%
- viability, T/C [11]: 6.21%
- viability, T/C [12]: 2.25%
- viability, T/C [13]: 22.7%
- viability, T/C [14]: 16.1%
- viability, T/C [15]: 6.8%
- viability, T/C [16]: 2.59%
- viability, T/C [17]: 2.63%
- viability, T/C [18]: 4.14%
- viability, T/C [19]: 24.3%
- viability, T/C [20]: 16.4%
- viability, T/C [21]: 6.64%
- viability, T/C [22]: 2.73%
- viability, T/C [23]: 2.91%
- viability, T/C [24]: 2.78%
- viability, T/C [25]: 24.7%
- viability, T/C [26]: 17.3%
- viability, T/C [27]: 7.11%
- viability, T/C [28]: 2.96%
- viability, T/C [29]: 3.51%
- viability, T/C [30]: 3.29%

Compound: Nc1ccccc1NC(=O)c1ccc(CNC(=O)OCc2cccnc2)cc1 + NC1CC1c1ccc(-c2cccc(O)c2)cc1
- IC50 (second compound 0.1 µM): 525 nM
- IC50 (second compound 0.316 µM): 530 nM
- IC50 (second compound 1 µM): 520 nM
- IC50 (second compound 3.16 µM): 481 nM
- IC50 (second compound 10 µM): 441 nM
- viability, T/C (second compound 0.1 µM, first compound 0.00949 µM): 101%
- viability, T/C (second compound 0.1 µM, first compound 0.03 µM): 96.2%
- viability, T/C (second compound 0.1 µM, first compound 0.0949 µM): 107%
- viability, T/C (second compound 0.1 µM, first compound 0.3 µM): 89.4%
- viability, T/C (second compound 0.1 µM, first compound 0.949 µM): 8.16%
- viability, T/C (second compound 0.1 µM, first compound 3 µM): 0.69%
- viability, T/C (second compound 0.316 µM, first compound 0.00949 µM): 104%
- viability, T/C (second compound 0.316 µM, first compound 0.03 µM): 102%
- viability, T/C (second compound 0.316 µM, first compound 0.0949 µM): 109%
- viability, T/C (second compound 0.316 µM, first compound 0.3 µM): 90.8%
- viability, T/C (second compound 0.316 µM, first compound 0.949 µM): 8.21%
- viability, T/C (second compound 0.316 µM, first compound 3 µM): 0.84%
- viability, T/C (second compound 1 µM, first compound 0.00949 µM): 101%
- viability, T/C (second compound 1 µM, first compound 0.03 µM): 103%
- viability, T/C (second compound 1 µM, first compound 0.0949 µM): 107%
- viability, T/C (second compound 1 µM, first compound 0.3 µM): 88.6%
- viability, T/C (second compound 1 µM, first compound 0.949 µM): 7.91%
- viability, T/C (second compound 1 µM, first compound 3 µM): 0.77%
- viability, T/C (second compound 3.16 µM, first compound 0.00949 µM): 100%
- viability, T/C (second compound 3.16 µM, first compound 0.03 µM): 102%
- viability, T/C (second compound 3.16 µM, first compound 0.0949 µM): 90.8%
- viability, T/C (second compound 3.16 µM, first compound 0.3 µM): 80.6%
- viability, T/C (second compound 3.16 µM, first compound 0.949 µM): 6.04%
- viability, T/C (second compound 3.16 µM, first compound 3 µM): 0.79%
- viability, T/C (second compound 10 µM, first compound 0.00949 µM): 88%
- viability, T/C (second compound 10 µM, first compound 0.03 µM): 82.6%
- viability, T/C (second compound 10 µM, first compound 0.0949 µM): 82.3%
- viability, T/C (second compound 10 µM, first compound 0.3 µM): 70.9%
- viability, T/C (second compound 10 µM, first compound 0.949 µM): 8.68%
- viability, T/C (second compound 10 µM, first compound 3 µM): 0.61%

Compound: Nc1ncn(C2CC(O)C(CO)O2)c(=O)n1 (stereo not given) + NC1CCC(NC2CC2c2ccccc2)CC1
- IC50 (second compound 0.1 µM): > 1000 nM
- IC50 (second compound 0.316 µM): > 1000 nM
- IC50 (second compound 1 µM): > 1000 nM
- IC50 (second compound 3.16 µM): > 1000 nM
- IC50 (second compound 10 µM): > 1000 nM
- viability, T/C [1]: 88.4%
- viability, T/C [2]: 93.3%
- viability, T/C [3]: 93.1%
- viability, T/C [4]: 115%
- viability, T/C [5]: 111%
- viability, T/C [6]: 101%
- viability, T/C [7]: 96%
- viability, T/C [8]: 81.7%
- viability, T/C [9]: 92.9%
- viability, T/C [10]: 122%
- viability, T/C [11]: 115%
- viability, T/C [12]: 94.2%
- viability, T/C [13]: 94.9%
- viability, T/C [14]: 81.1%
- viability, T/C [15]: 95.6%
- viability, T/C [16]: 123%
- viability, T/C [17]: 117%
- viability, T/C [18]: 97.1%
- viability, T/C [19]: 82.5%
- viability, T/C [20]: 92.9%
- viability, T/C [21]: 106%
- viability, T/C [22]: 122%
- viability, T/C [23]: 114%
- viability, T/C [24]: 97.7%
- viability, T/C [25]: 86.1%
- viability, T/C [26]: 105%
- viability, T/C [27]: 112%
- viability, T/C [28]: 102%
- viability, T/C [29]: 111%
- viability, T/C [30]: 99.8%

Compound: Cn1ncnc1C1c2n[nH]c(=O)c3cc(F)cc(c23)NC1c1ccc(F)cc1 (stereo not given) + NC1CC1c1ccc(-c2cccc(O)c2)cc1
- IC50 (second compound 0.1 µM): > 100 nM
- IC50 (second compound 0.316 µM): > 100 nM
- IC50 (second compound 1 µM): > 100 nM
- IC50 (second compound 3.16 µM): > 100 nM
- IC50 (second compound 10 µM): > 100 nM
- viability, T/C (second compound 0.1 µM, first compound 0.000316 µM): 105%
- viability, T/C (second compound 0.1 µM, first compound 0.001 µM): 106%
- viability, T/C [1]: 107%
- viability, T/C [2]: 104%
- viability, T/C [3]: 105%
- viability, T/C [4]: 102%
- viability, T/C (second compound 0.316 µM, first compound 0.000316 µM): 106%
- viability, T/C (second compound 0.316 µM, first compound 0.001 µM): 111%
- viability, T/C [7]: 109%
- viability, T/C [8]: 108%
- viability, T/C [9]: 108%
- viability, T/C [10]: 102%
- viability, T/C (second compound 1 µM, first compound 0.000316 µM): 105%
- viability, T/C (second compound 1 µM, first compound 0.001 µM): 106%
- viability, T/C [13]: 111%
- viability, T/C [14]: 108%
- viability, T/C [15]: 103%
- viability, T/C [16]: 103%
- viability, T/C (second compound 3.16 µM, first compound 0.000316 µM): 97.2%
- viability, T/C (second compound 3.16 µM, first compound 0.001 µM): 104%
- viability, T/C [19]: 101%
- viability, T/C [20]: 102%
- viability, T/C [21]: 98.6%
- viability, T/C [22]: 96.8%
- viability, T/C (second compound 10 µM, first compound 0.000316 µM): 85.3%
- viability, T/C (second compound 10 µM, first compound 0.001 µM): 91.2%
- viability, T/C [25]: 90.8%
- viability, T/C [26]: 83%
- viability, T/C [27]: 83.3%
- viability, T/C [28]: 81.3%
